The text below walks through data of patent US20240409647A1, “BISPECIFIC BINDING PROTEINS AGAINST ALARMINS AND USES THEREOF” (SINOMAB BIOSCIENCE LIMITED, priority 2022, published 2024).

One assay has as its target T1, murine IL17RB (Mus musculus, UniProt Q9JIP3).
T1 construct: purchased R&D systems
T1 sequence (Q9JIP3 18-499): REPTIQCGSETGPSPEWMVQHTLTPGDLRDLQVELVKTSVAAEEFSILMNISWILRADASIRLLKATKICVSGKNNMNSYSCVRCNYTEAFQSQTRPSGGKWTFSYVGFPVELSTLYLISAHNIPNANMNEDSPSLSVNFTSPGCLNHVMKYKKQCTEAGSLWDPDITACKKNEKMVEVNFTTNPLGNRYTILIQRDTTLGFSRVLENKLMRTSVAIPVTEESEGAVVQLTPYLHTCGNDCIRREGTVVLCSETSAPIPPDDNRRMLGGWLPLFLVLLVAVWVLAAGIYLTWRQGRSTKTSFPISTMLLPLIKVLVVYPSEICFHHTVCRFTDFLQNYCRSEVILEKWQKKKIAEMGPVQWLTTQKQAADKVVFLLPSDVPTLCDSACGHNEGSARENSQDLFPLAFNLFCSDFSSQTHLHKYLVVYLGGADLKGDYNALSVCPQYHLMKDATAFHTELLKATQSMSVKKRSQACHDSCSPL
As to the kind of experiment: ELISA, SM17 binding to coated IL-17RB protein (murine). The following applies: two wells. As for the experimental part:
A standard enzyme-linked immunosorbent assay (ELISA) method was used to determine the species specificity of SM17 against IL-17RB proteins. Briefly, IL-17RB proteins from human, mouse, cynomolgus or rhesus monkey (R&D systems, Minneapolis, MN) were diluted to 2.5 μg/ml in PBS and 50 μl of IL-17RB proteins were added to each well of ELISA strip. The strips were sealed with parafilm and incubated at 4° C. overnight for coating.
On the next day, strips were washed thrice with washing buffer (0.05% Tween 20 in PBS) and blocked with 100 μl per well with blocking buffer (3% BSA in PBS) for 2 hours RT before serially diluted SM17 (at a final concentration of 10, 2, 0.4, 0.08, 0.016, 0.0032, and 0.00064 μg/ml, respectively) was added.
For orientation: An ELISA detects its analyte on a solid surface through an enzyme-linked reagent.

Assay [1] concerns OVA-induced murine experimental asthma. As to the kind of experiment: Ovalbumin induced asthma on mice. The assay is classed as in vivo, BALB/c mice. As for the experimental part: Female BALB/c mice were induced with ovalbumin to elicit asthma like symptoms on mice. Briefly, mice were each sensitized with […] of ovalbumin (OVA) emulsified in 1 mg of aluminum hydroxide in a total volume of […] via intraperitoneal (IP) injections on Days 0 and 12. Mice were divided into 6 groups with 8 mice per group. Sensitized mice were exposed to aerosolized 5% OVA in sterile water, 20 minutes/day for six consecutive days (Days 19, 20, 21, 22, 23 and 24). Naïve mice inhaled the atomized water, 20 minutes/day, for six consecutive days. Mice were then i.v. injected with different concentrations of SM17, PBS (control), or dexamethasone (Dex) 4 hours before aerosol challenge, once per day (Day 19 to 24).
On day 25 (24 hours after the last OVA challenge), mice were anesthetized with Telazol® (20-40 mg/kg i.p.) and connected to a computer-controlled ventilator via the tracheal cannula. The time of expiration/inspiration and the respiratory rate were preset at 1.5:1 and 90/min, respectively. After a steady baseline was established, the resistance of the lung (RL) was recorded to evaluate the reaction of mice to a methacholine chloride gradient (0.025 and 0.05 mg/kg body weight); the methacholine chloride was injected into the vena jugulars externa at 5-min intervals via a fine needle. […] BALF from mice sacrificed on Day 25 was retrieved, and inflammatory cell number and the concentrations of inflammatory cytokine from BALF were determined.
Results are presented as means±SEM. One Way ANOVA, Dunnett's Multiple Comparison Test, *: P<0.05; **: P<0.01. Dex=Dexamethasone.

A further assay concerns Human PBMCs. As to the kind of experiment: IL-5 and IL-13 release from human PBMC incubated with IL-2 and three alarmins. The assay is classed as cell-based. The following applies: SM17 5 μg/ml; IL-2 and three alarmins (10 ng/ml), three days; vs IgG4 isotype control. As for the experimental part:
Human PBMCs (4×10^5 per group, Ixcells) were incubated with IL-2 (10 unit/mL, PeproTech) and various alarmin/alarmin combinations to mimic the pro-inflammatory cytokines release during allergic diseases. For IL-5 and IL-13 releases, PBMCs were incubated with IL-2 and three alarmins (all 10 ng/ml) for three days. For CCL17 release, PBMC was incubated with TSLP (10 ng/ml) for 1 day. For CCL8 and IFNγ releases, PBMCs were incubated with IL-12 (10 ng/ml, Sino Biological) and IL-33 (10 ng/ml) for 1 day. Cells were pretreated with SM17 (5 μg/ml) or IgG4 isotype control (5 μg/ml) for an hour before the addition of cytokines.
Supernatants were collected and the cytokine concentration were measured by ELISA kits (R&D systems). These established assays were used to test the potency of and SM17 and bsBps. […] Results were expressed in absolute amount in pg/ml.
SM17, three different SM17-anti-IL33 bsBps and three different SM17-anti-TSLP bsBps (all at 5 μg/ml) were added to human PBMC cultures under conditions that shall induce the release of IFNγ, CCL8, CCL17 and IL-5 as described in Example 11 above. The levels of different cytokines and chemotactic factors in supernatant obtained in induced PBMC were evaluated using standard ELISA methods.

Where “and” joins values, the source holds several entries; their conditions need not be identical. Identical values can stand only once.

On to “SM17: humanized anti-IL17RB monoclonal antibody, human IgG4 isotype; HC SEQ ID NO: 32, LC SEQ ID NO: 33”, for which the “OD 450 nm Absorption, murine IL17RB” value with murine IL17RB (SM17 0.0032 μg/mL) is 0.12 and 0.19; with murine IL17RB (SM17 0.016 μg/mL), 0.31; in the assay with murine IL17RB (SM17 0.08 μg/mL), 0.78; with murine IL17RB (SM17 0.4 μg/mL), 1.68 and 1.61; in the assay with murine IL17RB (SM17 2 μg/mL) it was 2.46 and 2.44; with murine IL17RB (SM17 10 μg/mL) it was 2.67 and 2.61. Besides, the “airway hyperresponsiveness (in words)” value in assay [1] (1 mg/kg or 3 mg/kg SM17 before each OVA aerosolization) is “mild but not significant abrogation in AHR”; in assay [1] (5 mg/kg SM17 i.v. once per day, Day 19 to 24, methacholine challenge day 25), “prevented airway hyperresponsiveness”. For the same substance, the “number of pulmonary infiltrated eosinophils (in words)” value in assay [1] (SM17 at 5 mg/kg) was “significantly reduce the number of pulmonary infiltrated eosinophils”. Further, the “IL-13 levels in BALF (in words)” value in assay [1] (SM17 at 5 mg/kg, Day 25) is on record as “significantly reduced the IL-13 levels”. In addition, in assay [1] (SM17 at 5 mg/kg, Day 25), the “eosinophil number in BALF (in words)” value was “significantly reduced”. Further, the “IL-5 levels in BALF (in words)” value in assay [1] (SM17 at 1, 3 and 5 mg/kg, Day 25) is “significantly reduced the IL-5 levels in BALF”. In addition, the “secretion of IL-5 (in words)” value in the assay on Human PBMCs is “effectively suppress”. In addition, the “secretion of IL-13 (in words)” value in the assay on Human PBMCs is “effectively suppress”.
